One compound from US20170095497A1, “TRANSIENT INHIBITION OF ADENOSINE KINASE AS AN ANTI-EPILE[…]” (Legacy Emanuel Hospital & Health Center, priority 2015, published 2017) can be followed below.

Data set [1] has as its system DNA methyltransferase (DNMT). Conditions: mice, one hour after administration. The source says: FIGS. 3 and 4 show a pair of bar graphs reporting the level of DNMT activity measured one hour after administration to mice of vehicle alone or with the indicated inhibitor.
Data set [2] deals with kainic acid (KA) triggered epileptogenesis in mice. Nature of the data set: EEG seizure recording six weeks after intrahippocampal kainic acid-triggered epileptogenesis, transient ITU treatment. Type of data set: in vivo, mouse. How it is done: (§1) Kainic acid (KA) was administered intrahippocampally (IH) at day 0 to produce status epilepticus. […] At six weeks and nine weeks, the subjects were analyzed by EEG alone or EEG and histology, respectively.
The number of subjects from which data were collected is indicated in parentheses above each condition.

For data set [3] the test system is unchanged. Nature of the data set: Histological analysis of hippocampal tissue sections at nine weeks after KA status epilepticus. Type of data set: in vivo, mouse. The method, then:
as §1
Administration of saline only is a control (top row of images). […] The tissue sections shown in the first column of images were Nissl stained, and those in the second, third, and fourth columns were stained respectively with antibodies to glial fibrillary acidic protein (GFAP), ADK, and 5-methylcytosine (5mC).
FIGS. 12-14 are a series of graphs plotting data from the histological analysis represented by FIG. 11. […] FIG. 13 plots the level of GFAP, and FIG. 14 the level of ADK.

Where [4] appears, read: 1.6 mg/kg ip twice daily, day 3 to day 8 after KA, EEG at six weeks.
Where [5] appears, read: hippocampal sections, nine weeks after KA, transient ITU ip.

For `Nc1ncnc2c1c(I)cn2[C@@H]1O[C@H](CO)[C@@H](O)[C@H]1O` [ITU, 5-iodotubercidin], in data set [1] (ITU 3.1 mg/kg), the “inhibition of DNMT compared with AZA” value was “as effective as AZA”. Moreover, the “DNMT inhibition compared with ADOX and IODO” value in data set [1] was “most effective”. Besides, in data set [2] (setting [4]), the seizure frequency entry is “dramatically reduced” and the “time spent in seizure” value was “dramatically reduced”. In data set [2] (3.1 mg/kg ip once daily, day 3 to day 8 after KA, EEG at six weeks), the “frequency of seizures and time spent in seizures” value is reported as “substantially ineffective”. Further, in data set [2] (ITU twice daily, EEG at six weeks, repeat of FIGS. 6 and 7), the “frequency of seizures and time spent in seizures, partial repeat experiment” value is “confirm the long-term, anti-epileptogenic effect”. For the same compound, the half-life result in data set [2] (mice, inferred from once-daily versus twice-daily efficacy) is listed as “much less than one day”. Further, in data set [3] (Nissl stained sections, nine weeks, compared to controls), the “dentate granule layer dispersion produced by KA” value was “significantly less”. Moreover, in data set [3] (setting [5]), the “level of 5-methylcytosine” value was “reduced” and the “level of ADK” value was “reduced”. In addition, the “epilepsy-associated histopathology (Nissl)” value in data set [3] (nine weeks after KA, transient ITU ip) is on record as “prevented later development of epilepsy-associated histopathology”.
